Assay results reported in PubChem BioAssay AID651829 (Broad Institute, 2012).
Values belong to the molecule of their own block, whether it stands above or below them. Active and inactive are the calls of the source.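 Rule for the calls: active = max delta Tm melting temperature shift above 1 degree C at some tested dose; inactive = the rest.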

Target: Kelch-like ECH-associated protein 1 (Homo sapiens) (UniProt Q14145)
Experiment: Keap1 Kelch domain binders by melting shift, dose response, orthogonal assay for Keap1-Nrf2 interaction inhibitor project, biophysical, thermal shift, RT-PCR instrument, dry powder (AID 651829)
Conditions: Recombinant Keap1 Kelch domain, Sypro Orange, top dose 38 µM, active compounds read high

Kelch-like ECH-associated protein 1 (Homo sapiens), sequence (Q14145 whole entry, looked up, the tested form may be a part): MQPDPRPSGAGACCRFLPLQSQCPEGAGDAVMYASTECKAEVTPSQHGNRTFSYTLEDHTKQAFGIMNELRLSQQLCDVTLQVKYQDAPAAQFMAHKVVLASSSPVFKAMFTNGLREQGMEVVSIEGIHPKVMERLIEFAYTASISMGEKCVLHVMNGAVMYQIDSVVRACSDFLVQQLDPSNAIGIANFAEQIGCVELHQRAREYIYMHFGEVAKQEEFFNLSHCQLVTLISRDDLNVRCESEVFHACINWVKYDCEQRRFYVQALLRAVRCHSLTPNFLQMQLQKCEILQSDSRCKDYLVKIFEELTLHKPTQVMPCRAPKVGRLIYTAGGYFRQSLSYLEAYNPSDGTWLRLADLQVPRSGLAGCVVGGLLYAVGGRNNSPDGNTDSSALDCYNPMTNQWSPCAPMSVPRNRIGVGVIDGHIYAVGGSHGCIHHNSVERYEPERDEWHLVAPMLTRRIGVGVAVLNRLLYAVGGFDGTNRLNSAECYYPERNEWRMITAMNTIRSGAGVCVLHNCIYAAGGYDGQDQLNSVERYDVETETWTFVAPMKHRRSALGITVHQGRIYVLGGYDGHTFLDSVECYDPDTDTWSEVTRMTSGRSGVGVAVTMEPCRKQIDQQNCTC

max delta Tm (at 38 µM): 0.771 °C (inactive)
Compound: NC(=O)c1ccccc1C(=O)NC[C@@H]1c2ccccc2CCN1C(=O)[C@@H]1CCCC[C@@H]1C(=O)O

max delta Tm (at 0.3 µM): 0.118 °C (inactive)
Compound: CCOC(=O)C(C(=O)OCC)c1cc(CNS(=O)(=O)c2ccc(C)cc2C)c2ccccc2n1

max delta Tm (at 2.6 µM): 0.045 °C (inactive)
Compound: CCOC(=O)C(C(=O)OCC)c1nc(NS(=O)(=O)c2c(C)cc(C)cc2C)c2ccccc2n1
